Here are results for two molecules from EP3067058A1, “BIOLOGICAL COMPOSITION BASED ON ENGINEERED LACTOBACILLUS PARACASEI SUBSP. PARACASEI F19 FOR THE BIOSYNTHESIS OF CANNABINOIDS” (Farmagens Health Care Srl, priority 2015, dated 2016).

The test system of one series is Bax. As to the kind of experiment: Immunoblot of pro-apoptotic Bax protein in Caco-2 cells. The format is cell-based, human. The conditions noted are these: 96 hrs incubation; 10^11 cfu; caproic acid 0.003-0.3µg/ml. As to the method:
Caco-2 cell colture. Caco-2 cells were cultured in Dulbecco's Modified Eagle's Medium (DMEM) supplemented with 5% Foetal Bovine Serum (FBS), 2 mM glutamine, 100 U/mL penicillin, 100 µg/mL streptomycin at 37 °C in 5% CO2/95% air. At confluence cells were washed three times with Phosphate Buffer Saline (PBS), detached with tripsyn/EDTA, plated in 10 cm diameter Petri dishes and left to adhere for 24 hrs. Thereafter, DMEM was replaced with fresh medium and cells were treated for 96 hrs with 10^11 cfu LP OAC-CAS-OLS-CsPT1^+, with caproic acid 0.003-0.3µg/ml or LP empty vector with caproic acid 0.003-0.3µg/ml.
The pro-apoptotic effect in Caco-2 cell cultured in the presence of LP OAC-CAS-OLS-CsPT1+ or LP empty vector was tested by immunoblot analysis of pro-apoptotic proteins level (Bax), as well as by rate of cells proliferation (MTT).
Immunoblot of Bax protein. Briefly, after homogenization in ice-cold hypotonic lysis buffer, protein concentration was determined using Bio-Rad protein assay kit (Bio-Rad, Milan, Italy). Analysis of Bax and β-actin protein expression was performed on total protein fractions of homogenates. Equivalent amounts (30 µg) of each homogenate underwent electrophoresis through a polyacrilamide minigel. […] Protein bands were then scanned and densitometrically analyzed with a GS-700 imaging densitometer.
In general terms: Immunoblotting shows a protein as a band on a membrane.

Another series has as its system Caco-2 cells. Kind of series: MTT proliferation assay in human colon carcinoma cells. It counts as cell-based. As to conditions: 96 hrs incubation; 10^11 cfu; caproic acid 0.003-0.3µg/ml. As to the method: To confirm the chemo-preventive action of cannabidiol in the experimental conditions, a study on the putative pro-apoptotic and anticancer activity exerted by LP OAC-CAS-OLS-CsPT1+ probiotic was tested in vitro in human colon carcinoma cells. CBD release in human colon carcinoma cell line was measured at the different time points.
Caco-2 cell colture. Caco-2 cells were cultured in Dulbecco's Modified Eagle's Medium (DMEM) supplemented with 5% Foetal Bovine Serum (FBS), 2 mM glutamine, 100 U/mL penicillin, 100 µg/mL streptomycin at 37 °C in 5% CO2/95% air. At confluence cells were washed three times with Phosphate Buffer Saline (PBS), detached with tripsyn/EDTA, plated in 10 cm diameter Petri dishes and left to adhere for 24 hrs. […]
MTT Proliferation and survival assays. Cell proliferation was evaluated by 3-[4,5-dimethylthiazol-2-yl]-2,5 diphenyltetrazolium bromide (MTT) assay. […] After this time point, the cells were lysed and the dark blue crystals solubilized with 125 µl of a solution containing 50% (N,N-dimethylformamide, 20% (w/v) sodium dodecylsulphate (pH 4.5). The optical density (OD) of each well was measured with a Perkin-Elmer (Waltham, MA, USA) microplate spectrophotometer equipped with a 620 nm filter. Cell viability in response to pentamidine was calculated as % cell viability (OD treated/OC control) X 100.
For orientation: Tetrazolium assays rely on reduction of a dye to a coloured formazan, in cell work by metabolically active cells.

The conditions of series [1]: smoking; cited from earlier work.

On to `CCCCCC(=O)O` [caproic acid], for which the “expression level of the pro-apoptotic protein Bax-2” value in the series on Bax was “no significant effect”. The “cell proliferation (MTT)” value with Caco-2 cells is “no significant effect”.
Take `CCCCCc1cc(O)c2c(c1)OC(C)(C)[C@@H]1CCC(C)=C[C@@H]21` [Δ^9-THC, (-)-trans-Δ9-tetrahydrocannabinol]: the “Δ^9-THC content in a cannabis cigarette that is absorbed” value in series [1] was “about 20%”.
